Measured values taken from the supplement of paper PMC10307832.

Assays:
Assay in all cases: relative viability (nuclei count vs DMSO), 5 days (fraction); higher = more cells survive
LCLC-97TM1 = test system: LCLC-97TM1
In short: (§1)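 Lung cancer cell lines in 1536-well plates were dosed by pin tool the day after seeding, either with one drug alone or with a fixed anchor-drug dose plus five library-drug doses (not always all listed) in √10 steps. After 5 days, cells were fixed and their nuclei stained in one step (final 0.05% Triton X-100, 1% formaldehyde, 1 ug/ml Hoechst), then counted on 4× images. Relative viability is the nuclei count in treated wells divided by that in vehicle wells. Values are medians of duplicate plates.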

NCI-H2085 = test system: NCI-H2085
In short: as §1

NCI-H322M = test system: NCI-H322M
In short: as §1

LXF-289 = test system: LXF-289
In short: as §1

H3255 = test system: H3255
In short: as §1

EMC-BAC-2 = test system: EMC-BAC-2
In short: as §1

NCI-H2023 = test system: NCI-H2023
In short: as §1

SK-LU-1 = test system: SK-LU-1
In short: as §1

NCI-H2347 = test system: NCI-H2347
In short: as §1

EPLC-272H = test system: EPLC-272H
In short: as §1

SW 1573 = test system: SW 1573
In short: as §1

NCI-H727 = test system: NCI-H727
In short: as §1

NCI-H2126 = test system: NCI-H2126
In short: as §1

NCI-H1915 = test system: NCI-H1915
In short: as §1

NCI-H2009 = test system: NCI-H2009
In short: as §1

NCI-H1993 = test system: NCI-H1993
In short: as §1

NCI-H1563 = test system: NCI-H1563
In short: as §1

NCI-H647 = test system: NCI-H647
In short: as §1

PC-14 = test system: PC-14
In short: as §1

NCI-H661 = test system: NCI-H661
In short: as §1

NCI-H1734 = test system: NCI-H1734
In short: as §1

HOP-62 = test system: HOP-62
In short: as §1

Q: With `O=c1cc(-c2cccc3c2Sc2ccccc2S3)oc(N2CCOCC2)c1` + C[C@@H](Oc1cc(-c2cnn(C3CCNCC3)c2)cnc1N)c1c(Cl)ccc(F)c1Cl [Crizotinib] (partner 1 µM) as the compound, how does the relative viability (LCLC-97TM1; first compound 0.08 µM) read?
A: 0.373

Q: What about the relative viability (LCLC-97TM1; first compound 0.253 µM) of the same compound?
A: 0.408

Q: What about the relative viability (LCLC-97TM1; first compound 0.8 µM) of the same compound?
A: 0.459

Q: And the relative viability (LCLC-97TM1; first compound 2.53 µM)?
A: 0.334

Q: What about the relative viability (LCLC-97TM1; first compound 8 µM) of the same compound?
A: 0.456

Q: What about the relative viability (NCI-H2085; first compound 0.08 µM) of the same compound?
A: 0.913

Q: And the relative viability (NCI-H2085; first compound 0.253 µM)?
A: 1.06

Q: What about the relative viability (NCI-H2085; first compound 0.8 µM) of the same compound?
A: 0.939

Q: And the relative viability (NCI-H2085; first compound 2.53 µM)?
A: 0.832

Q: What about the relative viability (NCI-H2085; first compound 8 µM) of the same compound?
A: 0.93

Q: What about the relative viability (NCI-H322M; first compound 0.08 µM) of the same compound?
A: 0.885

Q: What about the relative viability (NCI-H322M; first compound 0.253 µM) of the same compound?
A: 0.901

Q: And the relative viability (NCI-H322M; first compound 0.8 µM)?
A: 1.04

Q: What about the relative viability (NCI-H322M; first compound 2.53 µM) of the same compound?
A: 0.937

Q: And the relative viability (NCI-H322M; first compound 8 µM)?
A: 1.08

Q: And the relative viability (LXF-289; first compound 0.08 µM)?
A: 0.839

Q: And the relative viability (LXF-289; first compound 0.253 µM)?
A: 0.877

Q: What about the relative viability (LXF-289; first compound 0.8 µM) of the same compound?
A: 0.849

Q: And the relative viability (LXF-289; first compound 2.53 µM)?
A: 0.8

Q: And the relative viability (LXF-289; first compound 8 µM)?
A: 0.845

Q: And the relative viability (H3255; first compound 0.08 µM)?
A: 0.89

Q: What about the relative viability (H3255; first compound 0.253 µM) of the same compound?
A: 0.992

Q: And the relative viability (H3255; first compound 0.8 µM)?
A: 1.02

Q: And the relative viability (H3255; first compound 2.53 µM)?
A: 0.747

Q: What about the relative viability (H3255; first compound 8 µM) of the same compound?
A: 1.26

Q: What about the relative viability (EMC-BAC-2; first compound 0.08 µM) of the same compound?
A: 0.856

Q: What about the relative viability (EMC-BAC-2; first compound 0.253 µM) of the same compound?
A: 0.753

Q: And the relative viability (EMC-BAC-2; first compound 0.8 µM)?
A: 0.841

Q: And the relative viability (EMC-BAC-2; first compound 2.53 µM)?
A: 0.784

Q: And the relative viability (EMC-BAC-2; first compound 8 µM)?
A: 0.817

Q: What about the relative viability (NCI-H2023; first compound 0.08 µM) of the same compound?
A: 0.673

Q: And the relative viability (NCI-H2023; first compound 0.253 µM)?
A: 0.682

Q: And the relative viability (NCI-H2023; first compound 0.8 µM)?
A: 0.787

Q: And the relative viability (NCI-H2023; first compound 2.53 µM)?
A: 0.648

Q: And the relative viability (NCI-H2023; first compound 8 µM)?
A: 0.646

Q: And the relative viability (SK-LU-1; first compound 0.08 µM)?
A: 0.812

Q: And the relative viability (SK-LU-1; first compound 0.253 µM)?
A: 1.04

Q: What about the relative viability (SK-LU-1; first compound 0.8 µM) of the same compound?
A: 1.14

Q: And the relative viability (SK-LU-1; first compound 2.53 µM)?
A: 0.905

Q: And the relative viability (SK-LU-1; first compound 8 µM)?
A: 0.849

Q: What about the relative viability (NCI-H2347; first compound 0.08 µM) of the same compound?
A: 0.654

Q: What about the relative viability (NCI-H2347; first compound 0.253 µM) of the same compound?
A: 0.394

Q: And the relative viability (NCI-H2347; first compound 0.8 µM)?
A: 0.738

Q: What about the relative viability (NCI-H2347; first compound 2.53 µM) of the same compound?
A: 0.769

Q: What about the relative viability (NCI-H2347; first compound 8 µM) of the same compound?
A: 0.711

Q: What about the relative viability (EPLC-272H; first compound 0.08 µM) of the same compound?
A: 0.786

Q: And the relative viability (EPLC-272H; first compound 0.253 µM)?
A: 0.891

Q: And the relative viability (EPLC-272H; first compound 0.8 µM)?
A: 1.19

Q: And the relative viability (EPLC-272H; first compound 2.53 µM)?
A: 0.963

Q: And the relative viability (EPLC-272H; first compound 8 µM)?
A: 1.08

Q: What about the relative viability (SW 1573; first compound 0.08 µM) of the same compound?
A: 0.76

Q: What about the relative viability (SW 1573; first compound 0.253 µM) of the same compound?
A: 0.852

Q: And the relative viability (SW 1573; first compound 0.8 µM)?
A: 0.886

Q: What about the relative viability (SW 1573; first compound 2.53 µM) of the same compound?
A: 0.794

Q: And the relative viability (SW 1573; first compound 8 µM)?
A: 0.849

Q: What about the relative viability (NCI-H727; first compound 0.253 µM) of the same compound?
A: 0.892

Q: And the relative viability (NCI-H727; first compound 2.53 µM)?
A: 0.724

Q: And the relative viability (NCI-H727; first compound 8 µM)?
A: 0.868

Q: What about the relative viability (NCI-H2126; first compound 0.08 µM) of the same compound?
A: 1.02

Q: And the relative viability (NCI-H2126; first compound 0.253 µM)?
A: 1.09

Q: And the relative viability (NCI-H2126; first compound 0.8 µM)?
A: 1.17

Q: What about the relative viability (NCI-H2126; first compound 2.53 µM) of the same compound?
A: 0.994

Q: And the relative viability (NCI-H2126; first compound 8 µM)?
A: 1.04

Q: And the relative viability (NCI-H1915; first compound 0.08 µM)?
A: 1.02

Q: And the relative viability (NCI-H1915; first compound 0.253 µM)?
A: 0.987

Q: What about the relative viability (NCI-H1915; first compound 0.8 µM) of the same compound?
A: 1.02

Q: What about the relative viability (NCI-H1915; first compound 2.53 µM) of the same compound?
A: 0.905

Q: And the relative viability (NCI-H1915; first compound 8 µM)?
A: 0.847

Q: And the relative viability (NCI-H2009; first compound 0.08 µM)?
A: 1.02

Q: And the relative viability (NCI-H2009; first compound 0.253 µM)?
A: 1.02

Q: What about the relative viability (NCI-H2009; first compound 0.8 µM) of the same compound?
A: 1.05

Q: And the relative viability (NCI-H2009; first compound 2.53 µM)?
A: 0.957

Q: What about the relative viability (NCI-H2009; first compound 8 µM) of the same compound?
A: 1.03

Q: And the relative viability (NCI-H1993; first compound 0.08 µM)?
A: 0.838

Q: And the relative viability (NCI-H1993; first compound 0.253 µM)?
A: 1.01

Q: And the relative viability (NCI-H1993; first compound 0.8 µM)?
A: 0.89

Q: And the relative viability (NCI-H1993; first compound 2.53 µM)?
A: 0.871

Q: And the relative viability (NCI-H1993; first compound 8 µM)?
A: 0.99

Q: And the relative viability (NCI-H1563; first compound 0.08 µM)?
A: 0.93

Q: And the relative viability (NCI-H1563; first compound 0.253 µM)?
A: 0.758

Q: And the relative viability (NCI-H1563; first compound 0.8 µM)?
A: 0.792

Q: And the relative viability (NCI-H1563; first compound 2.53 µM)?
A: 0.804

Q: And the relative viability (NCI-H1563; first compound 8 µM)?
A: 0.887

Q: And the relative viability (NCI-H647; first compound 0.08 µM)?
A: 1.06

Q: What about the relative viability (NCI-H647; first compound 0.253 µM) of the same compound?
A: 1.09

Q: What about the relative viability (NCI-H647; first compound 0.8 µM) of the same compound?
A: 0.949

Q: What about the relative viability (NCI-H647; first compound 2.53 µM) of the same compound?
A: 1.02

Q: And the relative viability (NCI-H647; first compound 8 µM)?
A: 1.12

Q: And the relative viability (PC-14; first compound 0.08 µM)?
A: 0.979

Q: And the relative viability (PC-14; first compound 0.253 µM)?
A: 1.13

Q: And the relative viability (PC-14; first compound 0.8 µM)?
A: 0.945

Q: And the relative viability (PC-14; first compound 2.53 µM)?
A: 0.899

Q: What about the relative viability (PC-14; first compound 8 µM) of the same compound?
A: 0.868

Q: What about the relative viability (NCI-H661; first compound 0.08 µM) of the same compound?
A: 1.15

Q: And the relative viability (NCI-H661; first compound 0.253 µM)?
A: 1.04

Q: What about the relative viability (NCI-H661; first compound 0.8 µM) of the same compound?
A: 1.13

Q: What about the relative viability (NCI-H661; first compound 2.53 µM) of the same compound?
A: 0.939

Q: What about the relative viability (NCI-H661; first compound 8 µM) of the same compound?
A: 0.958

Q: And the relative viability (NCI-H1734; first compound 0.08 µM)?
A: 0.686

Q: What about the relative viability (NCI-H1734; first compound 0.253 µM) of the same compound?
A: 0.802

Q: What about the relative viability (NCI-H1734; first compound 0.8 µM) of the same compound?
A: 0.9

Q: What about the relative viability (NCI-H1734; first compound 2.53 µM) of the same compound?
A: 0.872

Q: What about the relative viability (NCI-H1734; first compound 8 µM) of the same compound?
A: 0.672

Q: And the relative viability (HOP-62; first compound 0.08 µM)?
A: 0.842

Q: And the relative viability (HOP-62; first compound 0.253 µM)?
A: 0.998

Q: And the relative viability (HOP-62; first compound 0.8 µM)?
A: 0.989

Q: And the relative viability (HOP-62; first compound 2.53 µM)?
A: 0.653

Q: What about the relative viability (HOP-62; first compound 8 µM) of the same compound?
A: 0.904
